This is an account of results in patent US20070149508A1, “Six membered heteroaromatic inhibitors targeting resistant kinase mutations” (TargeGen, Inc., priority 2005, published 2007).

For assay [1], the target named is T1, Abl (T315I) (Homo sapiens, UniProt P00519, T315I).
T1 construct: purchased Upstate
In words: Abl (T315I) Kinase Assay (KinaseGlo luminescent detection of residual ATP). It is filed as biochemical. The conditions noted are these: Abl (T315I) IC50 (nM), Abl (T315I) (Upstate, 17 ng/well), Abltide 100 uM, ATP 500 nM, 60 minutes at 37° C. Here is the method: The assay was performed similarly to the Abl kinase assay. Abl (T315I) (Upstate, 17 ng/well); Abltide substrate (100 uM) and ATP (500 nM) comprised the reaction mixture. Compound was similarly diluted, and the reaction plate was incubated for 60 minutes at 37° C.

Assay [2] has as its target Abl kinase (Homo sapiens, UniProt P00519). In words: biochemical. The conditions noted are these: Abl IC50 (nM), Abl kinase (Invitrogen, 20 ng/well), Abltide 100 μM, ATP 500 nM, 37° C. for 60 minutes, top concentration 10 uM.
Method: Kinase activity was assessed using luminescent detection (KinaseGlo, Promega) of residual ATP concentration in reaction mixtures containing optimized levels of kinase, substrate, ATP, compound and appropriate buffers. Kinase, substrate and ATP concentrations were determined per the supplier's recommendations. Briefly, this involved running concentration curves to select for optimal signal.
The reaction mixture (50 ul/well) consisted of Abl kinase (Invitrogen, 20 ng/well); Abltide peptide substrate (Upstate, 100 μM) and ATP (500 nM). Each compound was evaluated at a top concentration of 10 uM with 1:3 dilution steps, 10 dilution steps total. Compound was diluted into DMSO and transferred to the reaction plate, resulting in a final DMSO concentration of 2%. This amount of DMSO was determined not to interfere with the enzyme. The reaction was conducted at 37° C. for 60 minutes. The degree of inhibition was assessed using IC50 determinations, which were obtained using GraphPad Prism4.

Where a name gives a salt, the structure may show the parent alone.

The IC50 is the concentration that gives 50% inhibition. A higher IC50 goes with weaker potency in that assay. As to `NS(=O)(=O)c1ccc(/C=C/c2cnc(Nc3ccc(S(=O)(=O)N4CCCNCC4)cc3)nc2)cc1` [4-(2-{2-[4-([1,4]Diazepane-1-sulfonyl)-phenylamino]-pyrimidin-5-yl}-vinyl)-benzenesulfonamide], the IC50 in assay [1] worked out at 298 nM; in assay [2] it was 977 nM.
For `O=S(=O)(c1ccc(Nc2ncc(/C=C/c3cc(Cl)cc4[nH]nnc34)cn2)cc1)N1CCNCC1` [[4-(Piperazine-1-sulfonyl)-phenyl]-{5-[2-(6-chloro-1H-benzotriazol-4-yl)-vinyl]-pyrimidin-2-yl}-amine] the same measures were 21 nM and 61 nM.
For `Nc1nc2ccc(/C=C/c3cnc(Nc4ccc(S(=O)(=O)CC5CCNCC5)cc4)nc3)cc2s1` [6-(2-{2-[4-(Piperidin-4-ylmethanesulfonyl)-phenylamino]-pyrimidin-5-yl}-vinyl)-benzothiazol-2-ylamine] the same measures were 76 nM and 169 nM.
For `O=S(=O)(c1ccc(Nc2ncc(/C=C/c3cc(Cl)cc4[nH]nnc34)cn2)cc1)N1CCCNCC1` [[4-([1,4]Diazepane-1-sulfonyl)-phenyl]-{5-[2-(6-chloro-1H-benzotriazol-4-yl)-vinyl]-pyrimidin-2-yl}-amine] the same measures were 16 nM and 41 nM.
For `Nc1nc2ccc(/C=C/c3cnc(Nc4ccc(OC5CCNCC5)cc4)nc3)cc2s1` [6-[(E)-2-(2-{[4-(piperidin-4-yloxy)phenyl]amino}pyrimidin-5-yl)vinyl]-1,3-benzothiazol-2-amine], the IC50 in assay [1] came out at 428 nM; in assay [2] it was 259 nM.
For `O=S(=O)(c1ccc(Nc2ncc(/C=C/c3ccc(-c4c[nH]cn4)cc3)cn2)cc1)N1CCNCC1` [(5-{2-[4-(1H-Imidazol-4-yl)-phenyl]-vinyl}-pyrimidin-2-yl)-[4-(piperazine-1-sulfonyl)-phenyl]-amine], the results for the IC50 in assay [1] and in assay [2] were 5040 nM and 2860 nM, respectively.
For `O=C(Nc1cccc(/C=C/c2cnc(Nc3cccnc3)nc2)c1)c1cccc(C(F)(F)F)c1` [N-(3-{2-[2-(Pyridin-3-ylamino)-pyrimidin-5-yl]-vinyl}-phenyl)-3-trifluoromethyl-benzamide] the same measures were over 10000 nM and 148 nM.
For `Cc1nc(Nc2ccc(S(=O)(=O)C3CCNCC3)cc2)ncc1/C=C/c1cccc(O)c1` [3-((E)-2-(2-(4-(piperidin-4-ylsulfonyl)phenylamino)-4-methylpyrimidin-5-yl)vinyl)phenol hydrochloride] the same measures were 65 nM and 10 nM.
For `CN(C)CCN(C1CCNCC1)S(=O)(=O)c1ccc(Nc2ncc(/C=C/c3cccc4[nH]ncc34)cn2)cc1` [N-[2-(dimethylamino)ethyl]-4-({5-[(E)-2-(1H-indazol-4-yl)vinyl]pyrimidin-2-yl}amino)-N-piperidin-4-ylbenzenesulfonamide] the same measures were 113 nM and 10 nM.
In the case of `O=S(=O)(c1ccc(Nc2ncc(/C=C/c3ccc(-c4nnn[nH]4)cc3)cn2)cc1)C1CCNCC1` [5-((E)-4-(1H-tetrazol-5-ylsulfonyl)phenyl)pyrimidin-yl)styryl)-N-(4-(piperidin-4-2-amine hydrochloride], the IC50 in assay [1] turned out to be 4180 nM; in assay [2] it was 3260 nM.
For `O=S(=O)(c1ccc(Nc2ncc(/C=C/c3cccc(C(F)F)c3)cn2)cc1)C1CCNCC1` [5-(3-(difluoromethyl)styryl)-N-(4-piperidin-4-ylsulfonyl)phenyl)pyrimidin 2-amine. Triflate] the same measures were 486 nM and 162 nM.
`Nc1nc2ccc(/C=C/c3cnc(Nc4ccc(SCCN5CCOCC5)cc4)nc3)cc2s1` [6-(2-{2-[4-(2-Morpholin-4-yl-ethylsulfanyl)-phenylamino]-pyrimidin-5-yl}-vinyl)-benzothiazol-2-ylamine]: the IC50 was 1200 nM in assay [1] and 630 nM in assay [2].
For `O=S(=O)(c1ccc(Nc2ncc(/C=C/c3cccc(O)c3)cn2)cc1C(F)(F)F)N1CCNCC1` [3-(2-{2-[4-(Piperazine-1-sulfonyl)-3-trifluoromethyl-phenylamino]-pyrimidin-5-yl}-vinyl)-phenol] the same measures were 1410 nM and 222 nM.
In the case of `Oc1ccc(Cl)c(/C=C/c2cnc(Nc3ccc(OCCN4CCCC4)cc3)nc2)c1` [3-((E)-2-(2-(4-(2-(pyrrolidin-1-yl)ethoxy)phenylamino)pyrimidin-5-yl)vinyl)-4-chlorophenol hydrochloride], the IC50 in assay [1] came to 972 nM; in assay [2], 13 nM.
For `O=S(=O)(c1ccc(Nc2ncc(/C=C/c3cc(O)ccc3Cl)cn2)cc1)C1CCNCC1` [4-Chloro-3-(2-{2-[4-(piperidine-4-sulfonyl)-phenylamino]-pyrimidin-5-yl}-vinyl)-phenol] the same measures were 96 nM and 3.8 nM.
For `O=S(=O)(CCCN1CCCC1)c1ccc(Nc2ncc(/C=C/c3cccc4[nH]ccc34)cn2)cc1` [5-[(E)-2-(1H-indol-4-pyrrolidin-1-ylpropyl)sulfonyl]phenyl}pyrimidin-2-amine] the same measures were 386 nM and 13 nM.
Consider `Nc1nc2ccc(/C=C/c3cnc(Nc4ccc(S(=O)(=O)NC5CCNCC5)cc4)nc3)cc2s1` [4-{5-[2-(2-Amino-benzothiazol-6-yl)-vinyl]-piperidin-4-yl-benzenesulfonamide], for which the results for the half-maximal inhibitory concentration (IC50) in assay [1] and in assay [2] were 29 nM and 47 nM, respectively.
On to `NS(=O)(=O)c1cccc(/C=C/c2cnc(Nc3ccc(S(=O)(=O)N4CCCNCC4)cc3)nc2)c1` [3-(2-{2-[4-([1,4]Diazepane-1-sulfonyl)-phenylamino]-pyrimidin-5-yl}-vinyl)-benzenesulfonamide], for which the IC50 in assay [1] was 2440 nM; in assay [2], 781 nM.
For `O=C1Cc2c(/C=C/c3cnc(Nc4ccc(S(=O)(=O)C5CCNCC5)cc4)nc3)cccc2N1` [4-(2-{2-[4-(Piperidine-4-sulfonyl)-phenylamino]-pyrimidin-5-yl}-vinyl)-1,3-dihydro-indol-2-one, hydrogen chloride] the same measures were 2270 nM and 127 nM.
Regarding `CCNC(=O)N1CCC(S(=O)(=O)c2ccc(Nc3ncc(/C=C/c4ccc5nc(N)sc5c4)cn3)cc2)CC1` [4-(4-{5-[2-(2-Amino-benzothiazol-6-yl)-vinyl]-benzenesulfonyl)-piperidine-pyrimidin-2-ylamino)-1-carboxylic acid ethylamide], the IC50 was 237 nM in assay [1] and 233 nM in assay [2].
For `NC1CCN(S(=O)(=O)c2ccc(Nc3ncc(/C=C/c4cccc5[nH]ccc45)cn3)cc2)CC1` [N-{4-[(4-aminopiperidin-1-yl)sulfonyl]phenyl}-5-[(E)-2-(1H-indol-4-yl)vinyl]pyrimidin-2-amine] the same measures were 347 nM and 13 nM.
For `O=S(=O)(c1ccc(Nc2ncc(/C=C/c3cccc(O)c3)cn2)cc1)C1CCNCC1` [3-(2-{2-[4-(Piperidine-4-sulfonyl)-phenylamino]-pyrimidin-5-yl}-vinyl)-phenol] the same measures were 22 nM and 1.7 nM.
For `O=S(=O)(c1ccc(Nc2ncc(/C=C/c3cccc4[nH]ccc34)cn2)cc1)C1CCNCC1` [5-((E)-2-(1H-indol-4-yl)vinyl)-N-(4-(piperidin-4-2-amine] the same measures were 154 nM and 6.3 nM.
